The nature of data set [1]: Drug levels in retrieved capsules, IP lavage and plasma in non-human primates (HPLC, LCMS). The class given is in vivo, cynomolgus macaques. On the procedure: LC pumps used are Agilent 1290 Infinity Binary pumps with CTC Pal Autosampler. MS is a Sciex API6500 triple quad. Sample Storage Conditions: −80° C. Sample Processing Extraction Volume: 10 μL. Extraction Method: Protein Precipitation. For example: GW2580 plasma concentration analysis: Sample Extraction Procedure: 1. 10 μL of calibration standards, quality controls, blanks and samples were aliquoted into a 96-well plate. 2. 60 μL of IS-SS (internal standard) (100 ng/mL QNZ, carbutamide, chrysin, carbamazepine, glafenine, dexamethasone, glyburide, and d4AEA in acetonitrile) were added to all samples except for double blanks. 60 μL of acetonitrile was then added to double blanks. 3. The plate was covered and samples mixed, followed by centrifugation for 5 minutes at 3000 rpm at 4° C. 4. 50 μL of supernatant was then transferred into a clean 96-well plate using a liquid handler. 5. Samples were diluted with 100 μL of MilliQ water, and the plate was once again covered and mixed for about a minute prior to sample injection onto the LC-MS/MS at 1.00-2,500 ng/mL. LC Conditions: Waters BEH C18, 50×2.1 mm, 1.7 μm. Run temperature: 50° C. Mobile Phase A, 95:5:0.1 (v:v:v) Water:Acetonitrile:Formic Acid (1.2 min). Mobile Phase B, 50:50:0.1 (v:v:v) Methanol:Acetonitrile:Formic Acid (1.3 min). Flow: 0.8 mL/min. Injection Volume: 2 μL. MS Conditions: MS/MS: API-6500. Ionization Method: Electrospray. Positive/Negative Ion: Positive. Resolution: Unit. Source Temperature (° C.): 550. Transitions (m/z): Compound ID: GW2580 367.0/245.1 Da. Int Std ID: QNZ 357.0/197.1 Da. Data Analysis: Acceptance Criteria ‘±20% (±25% at the LLOQ), Regression Type, Linear (1/(x*x)), Accepted Curve Range 1.00-2,500 ng/mL Carryover 0.00%. HPLC
Calibration curves were obtained on an Agilent LC 1100 Series (Agilent Technologies, CA, USA) equipped with binary pump (G1312 Å), auto-sampler (G1313 Å), degasser and photodiode detector (DAD, G1315 Å). Chemstation was used for system control, data processing and data acquisition for LC. Chromatographic separation was achieved by an analytical Waters Atlantis T3 C18 column (5 μm, 4.6×250 mm). The temperature of column and auto-sampler were kept at 20° C.
Stock solution of GW2580 was prepared in dimethyl sulfoxide (DMSO) at a target concentration of 10 mg/ml and appropriate dilutions were made in DMSO to prepare standards (0.25-2500 μg/ml) for calibration curve of GW2580. 10 μl of standard solution was injected and the analytes were eluted by gradient mode using (A) acetonitrile and (B) 0.1% formic acid in water at a constant flow rate of 1 ml/min. The gradient conditions of mobile phase were as follows: 0 min 10% A, 10 min 95% A, 14 min 95% A, 16 min 10% A, 20 min 10% A.

For the next data set, the system named is C57BL/6 mice. In words: PDMS discs loaded with GW2580 crystals implanted SC and IP. The class given is in vivo. On the procedure:
Another study was done by mixing GW2580 crystals at different ratios of 1, 5 and 10% w/w with PDMS to form disks of 2.2 mm thickness and 5 mm diameter prepared at ratio 9:1 (PDMS: curing reagent) and were solidified overnight at 45° C. These disks were implanted into SC and IP spaces in C57BL/6 mice and then retrieved and analyzed at 2 weeks, 4 weeks, and 3 months post implantation in C57BL/6 mice (1 disc/site/mouse). […] Retrieved materials where fixed overnight using 4% paraformaldehyde at 4° C. After fixation, alginate sphere or retrieved tissue samples were washed using 70% alcohol. The materials where then mixed with 4 degrees calcium-cooled Histogel (VWR, CA #60872-486). After the molds hardened, the blocks were processed for paraffin embedding, sectioning and staining according to standard histological methods. Single-cell suspensions of freshly excised tissues were prepared using a gentle MACS Dissociator (Miltenyi Biotec, Auburn, Calif.) according to the manufacturer's protocol. Single-cell suspensions were prepared in a passive PEB dissociation buffer (1×PBS, pH 7.2, 0.5% BSA, and 2 mM EDTA) and suspensions were passed through 70 μm filters (Cat. #22363548, Fisher Scientific, Pittsburgh, Pa.). This process removed the majority of cells adhered to the surface (>90%). All tissue and material sample-derived, single-cell populations were then subjected to red blood cell lysis with 5 ml of 1×RBC lysis buffer (Cat. #00-4333, eBioscience, San Diego, Calif., USA) for 5 min at 4° C. The reaction was terminated by the addition of 20 ml of sterile 1×PBS. The cells remaining were centrifuged at 300-400 g at 4° C. and resuspended in a minimal volume (˜50 μl) of eBioscience Staining Buffer (cat. #00-4222) for antibody incubation. All samples were then co-stained in the dark for 25 min at 4° C. with two of the fluorescently tagged monoclonal antibodies specific for the cell markers CD68 (1 μl (0.5 μg) per sample; CD68-Alexa647, Clone FA-11, Cat. #11-5931, BioLegend), Ly-6G (Gr-1) (1 μl (0.5 μg) per sample; Ly-6G-Alexa-647, Clone RB6-8C5, Cat. #108418, BioLegend), CD11b (1 μl (0.2 μg) per sample; or CD11b-Alexa-488, Clone M1/70, Cat. #101217, BioLegend). For alpha smooth muscle actin (fibrosis) analysis, additional cell aliquots were also fixed in 1% paraformaldehyde and permeabilized with 0.1% triton X-100 before being stained with Cy3-conjugated anti-mouse αSM actin antibody (1:100) (Sigma Aldrich, St. Louis, Mo.). Two ml of eBioscience Flow Cytometry Staining Buffer (cat. #00-4222, eBioscience) was then added, and the samples were centrifuged at 400-500 g for 5 min at 4° C. Supernatants were removed by aspiration, and this wash step was repeated two more times with staining buffer. Following the third wash, each sample was resuspended in 500 μl of Flow Cytometry Staining Buffer and run through a 40 μm filter (Cat. #22363547, Fisher Scientific) for eventual FACS analysis using a BD FACSCalibur (cat. #342975), BD Biosciences, San Jose, Calif., USA). For proper background and laser intensity settings, unstained, single antibody, and IgG (labeled with either Alexa-488 or Alexa-647, BioLegend) controls were also run. For primate cell staining, anti-human CD68 Alexa Fluor-647-conjugated antibody (Clone KP1, Cat. #sc-20060, Santa Cruz, Dallas, Tex.) was used in conjunction with the above BioLegend (anti-mouse/human) CD11b-AF488 antibody.

From US10851069B2, “Compositions of crystallized hydrophobic compounds and methods of making and using same” (Massachusetts Institute of Technology, priority 2016, dated 2020) come the findings set out here.

As to `COc1ccc(COc2ccc(Cc3cnc(N)nc3N)cc2OC)cc1` [GW2580, 5-[[3-Methoxy-4-[(4-methoxyphenyl)methoxy]phenyl]methyl]-2,4-pyrimidinediamine], the “remaining drug extracted from retrieved capsules” value is listed as “little to no drug” in data set [1] (0.5 mm capsules, IP space, 3 months); “additional stores” in data set [1] (1.5 mm capsules, IP and SC sites, up to 6 months). For the same compound, in data set [1] (at the termination of the study), the plasma drug concentration result is on record as “below detection limits”. Moreover, the “IP space (lavage) drug concentration” value in data set [1] (beyond 4 weeks, below detectable limit) was less than 0.5 ng/mL. This compound also displayed a concentration at 4 weeks in data set [1] (cynomolgus monkey, intraperitoneal space lavage fluid, ip, 4 weeks post-implantation) of 2 to 3 ng/mL. In the data set on C57BL/6 mice (1, 5 and 10% w/w crystals, 2 and 4 weeks, 3 months), the “foreign body response (plaque on retrieved PDMS discs)” value is on record as “reduced in a dose-dependent fashion”. Moreover, the “remaining drug levels (% loading, HPLC), SC versus IP” value in the data set with C57BL/6 mice (2 weeks, 4 weeks, 3 months) is listed as “release was slower in the SC space”. Moreover, the “responding macrophages dissociated from discs (FACS)” value in the data set with C57BL/6 mice (all time points, IP and SC) was “significantly reduced cell numbers”. Further, the “immune cell infiltration and fibrosis (H&E and Masson's Trichrome)” value in the data set on C57BL/6 mice (excised SC and IP tissues, versus blank discs) is “significantly reduced immune cell infiltration and fibrosis”. For the same compound, the “drug retention, PDMS versus alginate” value in the data set with C57BL/6 mice (same incubation times) is listed as “drug retention was much higher in polymer PDMS”.
